Reference: patent publication US6737383B1, “Herbicidal oxadiazolidines” (priority 1999, dated 2004)

What was measured:
purple nutsedge = test: Test B pre/postemergence purple nutsedge; assay type: in vivo, Cyperus rotundus
Procedure, shortened: (§1)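 Response is a visual 0-to-10 score relative to untreated plants, where 0 means no effect and 10 means complete control, taken twelve to sixteen days after application. Treatments went onto soil at planting and onto foliage of 1- to 4-leaf plants, using a surfactant-containing non-phytotoxic solvent.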

velvetleaf = test: Test B pre/postemergence velvetleaf; assay type: in vivo, Abutilon theophrasti
Procedure, shortened: as §1

duck salad = test: Test B flood test duck salad; assay type: in vivo, Heteranthera limosa
Procedure, shortened: (§2)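 Flood test on plants grown to the 2-leaf stage; treated plants kept in greenhouse twelve to sixteen days, then visually rated against controls on a 0 (no effect) to 10 (complete control) scale.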

surinam grass = test: Test B pre/postemergence surinam grass; assay type: in vivo, Brachiaria decumbens
Procedure, shortened: as §1

morningglory = test: Test B pre/postemergence morningglory; assay type: in vivo, Ipomoea hederacea
Procedure, shortened: as §1

rape = test: Test B pre/postemergence rape; assay type: in vivo, Brassica napus
Procedure, shortened: as §1

rice = test: Test B flood test rice; assay type: in vivo, Oryza sativa
Procedure, shortened: as §2

corn = test: Test B pre/postemergence corn; assay type: in vivo, Zea mays
Procedure, shortened: as §1

giant foxtail = test: Test B pre/postemergence giant foxtail; assay type: in vivo, Setaria faberii
Procedure, shortened: as §1

pigweed = test: Test B pre/postemergence pigweed; assay type: in vivo, Amaranthus retroflexus
Procedure, shortened: as §1

blackgrass = test: Test B pre/postemergence blackgrass; assay type: in vivo, Alopecurus myosuroides
Procedure, shortened: as §1

smallflower flatsedge = test: Test B flood test smallflower flatsedge; assay type: in vivo, Cyperus difformis
Procedure, shortened: as §2

crabgrass = test: Test B pre/postemergence crabgrass; assay type: in vivo, Digitaria sanguinalis
Procedure, shortened: as §1

sugar beet = test: Test B pre/postemergence sugar beet; assay type: in vivo, Beta vulgaris
Procedure, shortened: as §1

wheat = test: Test B pre/postemergence wheat; assay type: in vivo, Triticum aestivum
Procedure, shortened: as §1

cocklebur = test: Test B pre/postemergence cocklebur; assay type: in vivo, Xanthium strumarium
Procedure, shortened: as §1

[1] = Preemergence, Rate 62 g/ha, scale of 0 to 10 where 0 is no effect and 10 is complete control
[2] = Preemergence, Rate 250 g/ha, scale of 0 to 10 where 0 is no effect and 10 is complete control
[3] = Preemergence, Rate 500 g/ha, scale of 0 to 10 where 0 is no effect and 10 is complete control
[4] = Rate 125 g/ha, Postemergence, scale of 0 to 10 where 0 is no effect and 10 is complete control
[5] = Rate 125 g/ha, Preemergence, scale of 0 to 10 where 0 is no effect and 10 is complete control
[6] = Rate 250 g/ha, Postemergence, scale of 0 to 10 where 0 is no effect and 10 is complete control
[7] = Rate 500 g/ha, Postemergence, scale 0 to 10, 0 no effect, 10 complete control
[8] = Rate 62 g/ha, headed Pre-emergence (flood test species), scale 0 to 10 (0 no effect, 10 complete control)
[9] = Rate 125 g/ha, Pre-emergence, flood test species, scale 0 to 10 where 0 is no effect and 10 is complete control
[10] = Rate 250 g/ha, Pre-emergence, flood-test species, scale 0 to 10, 0 is no effect, 10 is complete control
[11] = Rate 500 g/ha, Pre-emergence, flood test species, scale 0 to 10 (0 no effect, 10 complete control)
[12] = Rate 62 g/ha, Postemergence, scale of 0 to 10 where 0 is no effect and 10 is complete control

SMILES: CC(C)N(C(=O)n1oc(=O)n(Cc2ccccn2)c1=O)c1ccc(F)cc1 [Compound 267]
- Nutsedge plant response rating (purple nutsedge; [1]): 0
- Nutsedge plant response rating (purple nutsedge; [2]): 0
- Plant response rating, Nutsedge (purple nutsedge; [3]): 0
- Nutsedge plant response rating (purple nutsedge; [4]): 0
- Nutsedge plant response rating (purple nutsedge; [5]): 0
- Plant response rating, Nutsedge (purple nutsedge; [6]): 0
- Nutsedge plant response rating (purple nutsedge; [7]): 4
- Velvetleaf plant response rating (velvetleaf; [1]): 0
- Velvetleaf plant response rating (velvetleaf; [2]): 0
- Plant response rating, Velvetleaf (velvetleaf; [3]): 3
- Velvetleaf plant response rating (velvetleaf; [4]): 0
- Velvetleaf plant response rating (velvetleaf; [5]): 0
- Plant response rating, Velvetleaf (velvetleaf; [6]): 1
- Velvetleaf plant response rating (velvetleaf; [7]): 3
- Ducksalad plant response rating (duck salad; [8]): 0
- Ducksalad plant response rating (duck salad; [9]): 0
- Ducksalad plant response rating (duck salad; [10]): 0
- Ducksalad plant response rating (duck salad; [11]): 0
- B. signalgrass plant response rating (surinam grass; [1]): 0
- B. signalgrass plant response rating (surinam grass; [2]): 0
- Plant response rating, B. signalgrass (surinam grass; [3]): 9
- B. signalgrass plant response rating (surinam grass; [12]): 0
- B. signalgrass plant response rating (surinam grass; [4]): 0
- B. signalgrass plant response rating (surinam grass; [5]): 0
- Plant response rating, B. signalgrass (surinam grass; [6]): 0
- B. signalgrass plant response rating (surinam grass; [7]): 3
- Morningglory plant response rating (morningglory; [1]): 0
- Morningglory plant response rating (morningglory; [2]): 0
- Plant response rating, Morningglory (morningglory; [3]): 0
- Morningglory plant response rating (morningglory; [4]): 1
- Morningglory plant response rating (morningglory; [5]): 0
- Plant response rating, Morningglory (morningglory; [6]): 3
- Morningglory plant response rating (morningglory; [7]): 8
- Rape plant response rating (rape; [1]): 0
- Rape plant response rating (rape; [2]): 0
- Plant response rating, Rape (rape; [3]): 0
- Rape plant response rating (rape; [4]): 0
- Rape plant response rating (rape; [5]): 0
- Plant response rating, Rape (rape; [6]): 0
- Rape plant response rating (rape; [7]): 2
- Rice plant response rating (rice; [8]): 0
- Rice plant response rating (rice; [9]): 0
- Rice plant response rating (rice; [10]): 0
- Rice plant response rating (rice; [11]): 0
- Corn plant response rating (corn; [1]): 0
- Corn plant response rating (corn; [2]): 2
- Plant response rating, Corn (corn; [3]): 3
- Corn plant response rating (corn; [12]): 0
- Corn plant response rating (corn; [4]): 0
- Corn plant response rating (corn; [5]): 0
- Plant response rating, Corn (corn; [6]): 0
- Corn plant response rating (corn; [7]): 0
- Giant foxtail plant response rating (giant foxtail; [1]): 8
- Giant foxtail plant response rating (giant foxtail; [2]): 9
- Plant response rating, Giant foxtail (giant foxtail; [3]): 9
- Giant foxtail plant response rating (giant foxtail; [4]): 0
- Giant foxtail plant response rating (giant foxtail; [5]): 8
- Plant response rating, Giant foxtail (giant foxtail; [6]): 2
- Giant foxtail plant response rating (giant foxtail; [7]): 7
- Redroot pigweed plant response rating (pigweed; [1]): 0
- Redroot pigweed plant response rating (pigweed; [2]): 6
- Plant response rating, Redroot pigweed (pigweed; [3]): 7
- Redroot pigweed plant response rating (pigweed; [4]): 0
- Redroot pigweed plant response rating (pigweed; [5]): 3
- Plant response rating, Redroot pigweed (pigweed; [6]): 0
- Redroot pigweed plant response rating (pigweed; [7]): 6
- Blackgrass plant response rating (blackgrass; [1]): 0
- Blackgrass plant response rating (blackgrass; [2]): 2
- Plant response rating, Blackgrass (blackgrass; [3]): 8
- Blackgrass plant response rating (blackgrass; [12]): 0
- Blackgrass plant response rating (blackgrass; [4]): 0
- Blackgrass plant response rating (blackgrass; [5]): 2
- Plant response rating, Blackgrass (blackgrass; [6]): 5
- Blackgrass plant response rating (blackgrass; [7]): 8
- S. Flatsedge plant response rating (smallflower flatsedge; [8]): 0
- S. Flatsedge plant response rating (smallflower flatsedge; [9]): 0
- S. Flatsedge plant response rating (smallflower flatsedge; [10]): 0
- S. Flatsedge plant response rating (smallflower flatsedge; [11]): 0
- Crabgrass plant response rating (crabgrass; [1]): 2
- Crabgrass plant response rating (crabgrass; [2]): 1
- Plant response rating, Crabgrass (crabgrass; [3]): 8
- Crabgrass plant response rating (crabgrass; [4]): 0
- Crabgrass plant response rating (crabgrass; [5]): 0
- Plant response rating, Crabgrass (crabgrass; [6]): 3
- Crabgrass plant response rating (crabgrass; [7]): 7
- Sugarbeets plant response rating (sugar beet; [1]): 0
- Sugarbeets plant response rating (sugar beet; [2]): 0
- Plant response rating, Sugarbeets (sugar beet; [3]): 5
- Sugarbeets plant response rating (sugar beet; [4]): 0
- Sugarbeets plant response rating (sugar beet; [5]): 0
- Plant response rating, Sugarbeets (sugar beet; [6]): 2
- Sugarbeets plant response rating (sugar beet; [7]): 4
- Wheat plant response rating (wheat; [1]): 0
- Wheat plant response rating (wheat; [2]): 0
- Plant response rating, Wheat (wheat; [3]): 0
- Wheat plant response rating (wheat; [4]): 0
- Wheat plant response rating (wheat; [5]): 0
- Plant response rating, Wheat (wheat; [6]): 3
- Wheat plant response rating (wheat; [7]): 4
- Cocklebur plant response rating (cocklebur; [1]): 0
- Cocklebur plant response rating (cocklebur; [2]): 0
- Plant response rating, Cocklebur (cocklebur; [3]): 0
- Cocklebur plant response rating (cocklebur; [12]): 0
- Cocklebur plant response rating (cocklebur; [4]): 0
- Cocklebur plant response rating (cocklebur; [5]): 0
- Plant response rating, Cocklebur (cocklebur; [6]): 1
- Cocklebur plant response rating (cocklebur; [7]): 3

SMILES: Cc1ccccc1-n1c(=O)on(C(=O)N(c2ccc(Oc3ccccc3)cc2)C(C)C)c1=O [Compound 268]
- Nutsedge plant response rating (purple nutsedge; [1]): 0
- Nutsedge plant response rating (purple nutsedge; [2]): 0
- Nutsedge plant response rating (purple nutsedge; [4]): 0
- Nutsedge plant response rating (purple nutsedge; [5]): 0
- Plant response rating, Nutsedge (purple nutsedge; [6]): 0
- Nutsedge plant response rating (purple nutsedge; [7]): 0
- Velvetleaf plant response rating (velvetleaf; [1]): 0
- Velvetleaf plant response rating (velvetleaf; [2]): 0
- Plant response rating, Velvetleaf (velvetleaf; [3]): 0
- Velvetleaf plant response rating (velvetleaf; [4]): 0
- Velvetleaf plant response rating (velvetleaf; [5]): 0
- Plant response rating, Velvetleaf (velvetleaf; [6]): 0
- Velvetleaf plant response rating (velvetleaf; [7]): 0
- Ducksalad plant response rating (duck salad; [8]): 0
- Ducksalad plant response rating (duck salad; [9]): 0
- Ducksalad plant response rating (duck salad; [10]): 0
- Ducksalad plant response rating (duck salad; [11]): 0
- B. signalgrass plant response rating (surinam grass; [1]): 0
- B. signalgrass plant response rating (surinam grass; [2]): 0
- Plant response rating, B. signalgrass (surinam grass; [3]): 0
- B. signalgrass plant response rating (surinam grass; [12]): 0
- B. signalgrass plant response rating (surinam grass; [4]): 0
- B. signalgrass plant response rating (surinam grass; [5]): 0
- Plant response rating, B. signalgrass (surinam grass; [6]): 0
- Morningglory plant response rating (morningglory; [1]): 0
- Morningglory plant response rating (morningglory; [2]): 0
- Plant response rating, Morningglory (morningglory; [3]): 0
- Morningglory plant response rating (morningglory; [4]): 2
- Morningglory plant response rating (morningglory; [5]): 0
- Plant response rating, Morningglory (morningglory; [6]): 2
- Morningglory plant response rating (morningglory; [7]): 7
- Rape plant response rating (rape; [1]): 0
- Rape plant response rating (rape; [2]): 0
- Plant response rating, Rape (rape; [3]): 0
- Rape plant response rating (rape; [4]): 0
- Rape plant response rating (rape; [5]): 0
- Plant response rating, Rape (rape; [6]): 0
- Rice plant response rating (rice; [8]): 0
- Rice plant response rating (rice; [9]): 0
- Rice plant response rating (rice; [10]): 0
- Rice plant response rating (rice; [11]): 0
- Corn plant response rating (corn; [1]): 0
- Corn plant response rating (corn; [2]): 0
- Plant response rating, Corn (corn; [3]): 0
- Corn plant response rating (corn; [12]): 0
- Corn plant response rating (corn; [4]): 0
- Corn plant response rating (corn; [5]): 0
- Plant response rating, Corn (corn; [6]): 0
- Corn plant response rating (corn; [7]): 3
- Giant foxtail plant response rating (giant foxtail; [1]): 0
- Giant foxtail plant response rating (giant foxtail; [2]): 0
- Plant response rating, Giant foxtail (giant foxtail; [3]): 0
- Giant foxtail plant response rating (giant foxtail; [4]): 0
- Giant foxtail plant response rating (giant foxtail; [5]): 0
- Plant response rating, Giant foxtail (giant foxtail; [6]): 0
- Giant foxtail plant response rating (giant foxtail; [7]): 0
- Redroot pigweed plant response rating (pigweed; [1]): 0
- Redroot pigweed plant response rating (pigweed; [2]): 0
- Plant response rating, Redroot pigweed (pigweed; [3]): 0
- Redroot pigweed plant response rating (pigweed; [4]): 0
- Redroot pigweed plant response rating (pigweed; [5]): 0
- Plant response rating, Redroot pigweed (pigweed; [6]): 0
- Blackgrass plant response rating (blackgrass; [1]): 0
- Blackgrass plant response rating (blackgrass; [2]): 0
- Plant response rating, Blackgrass (blackgrass; [3]): 0
- Blackgrass plant response rating (blackgrass; [12]): 0
- Blackgrass plant response rating (blackgrass; [4]): 0
- Blackgrass plant response rating (blackgrass; [5]): 0
- Plant response rating, Blackgrass (blackgrass; [6]): 0
- S. Flatsedge plant response rating (smallflower flatsedge; [8]): 0
- S. Flatsedge plant response rating (smallflower flatsedge; [9]): 0
- S. Flatsedge plant response rating (smallflower flatsedge; [10]): 0
- S. Flatsedge plant response rating (smallflower flatsedge; [11]): 0
- Crabgrass plant response rating (crabgrass; [1]): 0
- Crabgrass plant response rating (crabgrass; [2]): 0
- Plant response rating, Crabgrass (crabgrass; [3]): 0
- Crabgrass plant response rating (crabgrass; [4]): 0
- Crabgrass plant response rating (crabgrass; [5]): 0
- Plant response rating, Crabgrass (crabgrass; [6]): 0
- Crabgrass plant response rating (crabgrass; [7]): 0
- Sugarbeets plant response rating (sugar beet; [1]): 0
- Sugarbeets plant response rating (sugar beet; [2]): 0
- Plant response rating, Sugarbeets (sugar beet; [3]): 0
- Sugarbeets plant response rating (sugar beet; [4]): 0
- Sugarbeets plant response rating (sugar beet; [5]): 0
- Plant response rating, Sugarbeets (sugar beet; [6]): 0
- Wheat plant response rating (wheat; [1]): 0
- Wheat plant response rating (wheat; [2]): 0
- Plant response rating, Wheat (wheat; [3]): 0
- Wheat plant response rating (wheat; [4]): 0
- Wheat plant response rating (wheat; [5]): 0
- Plant response rating, Wheat (wheat; [6]): 0
- Cocklebur plant response rating (cocklebur; [1]): 0
- Cocklebur plant response rating (cocklebur; [2]): 0
- Plant response rating, Cocklebur (cocklebur; [3]): 0
- Cocklebur plant response rating (cocklebur; [12]): 0
- Cocklebur plant response rating (cocklebur; [4]): 0
- Cocklebur plant response rating (cocklebur; [5]): 0
- Plant response rating, Cocklebur (cocklebur; [6]): 0
- Cocklebur plant response rating (cocklebur; [7]): 0
